# Experimental data: US10697960B2, “CXCR4 and ROBO1 expression as markers for autoimmune diabetes” (BOARD OF SUPERVISORS OR LOUISANA STATE UNIVERSITY AND …, priority 2012, dated 2020)
# Entries after “also recorded” stand apart in the source; their conditions may differ. Square brackets hold non-standard residues; d marks the D form. Ends that are not written are not given here. Linker = not defined here
# B1: SLIT2: recombinant mouse SLIT2 (5444-SL; R&D Systems), ligand of ROBO1 (protein)
# chain: QACPAQCSCSGSTVDCHGLALRSVPRNIPRNTERLDLNGNNITRITKIDFAGLRHLRVLQLMENRISTIERGAFQDLKELERLRLNRNNLQLFPELLFLGTAKLYRLDLSENQIQAIPRKAFRGAVDIKNLQLDYNQISCIEDGAFRALRDLEVLTLNNNNITRLSVASFNHMPKLRTFRLHSNNLYCDCHLAWLSDWLRQRPRVGLYTQCMGPSHLRGHNVAEVQKREFVCSGHQSFMAPSCSVLHCPAACTCSNNIVDCRGKGLTEIPTNLPETITEIRLEQNSIRVIPPGAFSPYKKLRRLDLSNNQISELAPDAFQGLRSLNSLVLYGNKITELPKSLFEGLFSLQLLLLNANKINCLRVDAFQDLHNLNLLSLYDNKLQTVAKGTFSALRAIQTMHLAQNPFICDCHLKWLADYLHTNPIETSGARCTSPRRLANKRIGQIKSKKFRCSGTEDYRSKLSGDCFADLACPEKCRCEGTTVDCSNQRLNKIPDHIPQYTAELRLNNNEFTVLEATGIFKKLPQLRKINFSNNKITDIEEGAFEGASGVNEILLTSNRLENVQHKMFKGLESLKTLMLRSNRISCVGNDSFIGLGSVRLLSLYDNQITTVAPGAFDSLHSLSTLNLLANPFNCNCHLAWLGEWLRRKRIVTGNPRCQKPYFLKEIPIQDVAIQDFTCDDGNDDNSCSPLSRCPSECTCLDTVVRCSNKGLKVLPKGIPKDVTELYLDGNQFTLVPKELSNYKHLTLIDLSNNRISTLSNQSFSNMTQLLTLILSYNRLRCIPPRTFDGLKSLRLLSLHGNDISVVPEGAFNDLSALSHLAIGANPLYCDCNMQWLSDWVKSEYKEPGIARCAGPGEMADKLLLTTPSKKFTCQ
# Columns and labels:
# [1] = system: adoptive transfer models in mice; conditions: cited from earlier work
# [2] = system: NOD/ShiLtJ T cells on TNFα-activated MS1 islet endothelial cells; assay: Parallel plate flow chamber T cell adhesion assay with SDF-1 peptide mimetic; assay type: cell-based, mouse; conditions: 150 mPa; for TNFα-induced firm adhesion of T cells (fold change in number of adherent cells): MS1 cells treated 10 minutes with mimetic at 200, 1000 or 5000 ng/ml after 10 ng/ml TNFα, versus TNFα alone
# Protocol: Hydrodynamic flow chamber assays were performed as otherwise described in C. Sharp et al. (2008). Briefly, T cells isolated as described above were labeled with CellTracker Green (C7025; Life Technologies, Carlsbad, Calif., USA), rinsed, and resuspended at a concentration of 2×10^6 cells/ml in phenol red-free Hanks' balanced salt solution (HBSS). The cells were placed in a beaker that had been previously coated with Sigmacote (Sigma-Aldrich), kept at 37° C., and stirred at 60 rev/min. A flow chamber insert and gasket with a 0.5 cm flow width and 250 μm thickness (GlycoTech, Gaithersburg, Md., USA) were used with 35 mm cell culture dishes containing confluent MS1 cell cultures to form a parallel plate flow chamber. To activate endothelial cells, MS1 cells were treated for 4 to 6 hours at 37° C. with 10 ng/ml recombinant mouse TNFα (T7539; Sigma).
# For the SDF-1 peptide mimetic T cell adhesion assay, MS1 cells were rinsed with HBSS and treated for 10 minutes with an SDF-1 peptide mimetic (AYWKENKEQ with two branched lysines as a linker between the two motifs, SEQ ID NO 1) at […]. This peptide was a linearized version of a cyclized SDF-1 analogue reported by Tudan et al., “C-terminal cyclization of an SDF-1 small peptide analogue dramatically increases receptor affinity and activation of CXCR4 receptor,” J. Med. Chem., vol. 45, pp. 2024-31 (2002). T cells were pumped through polypropylene tubing by a syringe pump (KD Scientific, Holliston, Mass., USA) across the endothelial monolayer at a physiological shear stress of 150 mPa. Real-time digital video images (minimum 28 frames/second) were captured with an epifluorescence microscope (TE-2000 Eclipse; Nikon, Tokyo, Japan) and digital camera (Model C4742-95-12ER: Hamamatsu Photonics, Hamamatsu, Japan). Simple PCI software (Hamamatsu Photonics) was used to analyze the video and to measure T cell rolling velocities. Cells were considered firmly adherent if they remained stationary for 10 seconds within the field of view. A minimum of three videos per plate and four plates per condition were used for analysis.
# We examined whether a linear SDF-1 peptide mimetic containing the receptor-binding site could replicate the effect of full length SDF-1 in blocking adhesion of T cells to activated endothelium. MS1 cells were treated for 4 hours with 10 ng/ml TNFα, followed by treatment for 10 minutes with an SDF-1 peptide mimetic at 200, 1000, or 5000 ng/ml. Cells were then tested in a parallel plate flow chamber cell adhesion assay. Fluorescently labeled T cells obtained from NOD/ShiLtJ mice flowed over the endothelial monolayers at 150 mPa. […] Leucocyte adhesion videos were analyzed to calculate T cell rolling velocity and to determine whether the decrease in firm adhesion was due to a decreased number of rolling cells.
# NOD/LtSz Rag1^−/− mice = assay: Diabetes adoptive transfer of diabetogenic splenocytes; assay type: in vivo, mouse; conditions: for blood glucose levels compared with PBS treatment: 4 to 5 weeks post-transfer
# Protocol: Single cell suspensions of splenocytes were isolated from spleens of spontaneously diabetic female NOD/ShiLtJ mice as otherwise described in J. Glawe et al. (2009) Genetic deficiency of Itgb2 or ItgaL prevents autoimmune diabetes through distinctly different mechanisms in NOD/LtJ mice. Diabetes 58: 1292-1301, Erythrocytes were lysed with 150 mM NH4Cl, 1.0 mM/l KHCO3, and 0.1 mM disodium EDTA, and then resuspended in PBS at 200×10^6 splenocytes per ml. Female NOD/LtSz Rag1^−/− mice were injected retro-orbitally with 20×10^6 splenocytes.
# The recipient mice were then injected retro-orbitally, either once or three times per week, with the SDF-1 peptide mimetic CTCE-0214 (SEQ ID NO. 2, KPVSLSYRCPCRFF-Linker-LKWIQEYLEKALN-OH) (British Canadian BioSciences, Vancouver, BC, Canada) at 1 or 10 mg/kg, or with PBS. See K Li, et al., “Small peptide analogue of SDF-1a supports survival of cord blood CD34+ cells in synergy with other cytokines and enhances their ex vivo expansion and engraftment into nonobese diabetic/severe combined immunodeficient mice,” Stem Cells, vol, 24, pp. 56-64 (2006); R. Zhong et al., “Small peptide analogs to stromal derived factor 1 enhance chemotactic migration of human and mouse hematopoietic cells,” Experimental Hematology, vol 32, pp. 470-475 (2004); A. Faber at al., “The many facets of SDF-1, CXCR4 agonists and antagonists on hematopoietic progenitor cells,” Journal of Biomedicine and Biotechnology, Article ID 26065; doi: 10.1155/200726065 (2007). Blood glucose was measured twice per week via a tail stick assay (Ascensia Glucometer Elite; Bayer, Leverkusen, Germany). Mice were considered hyperglycaemic following two consecutive measurements at 13.9 mM (250 mg/dl) glucose. Another SDF-1 mimetic that could be used is the CTCE-9908 peptide disclosed by A. Faber at al. (2007).
# CD34^+ cells = conditions: at much higher concentrations than SDF-1; cited from earlier work
# [3] = system: NOD/ShiLtJ T cells on VCAM-1- and ICAM-1-coated plates; assay: SLIT2 T cell detachment assay on VCAM-1- and ICAM-1-coated plates; assay type: cell-based, mouse; conditions: SDF-1 plus 20 μg/ml SLIT2 versus SDF-1 alone
# Protocol: T cell detachment assays were performed as otherwise described in C. Sharp et al. (2008). T cells were injected into the tubing via an inlet port upstream of the flow chamber at a concentration of 2×10^6 cells/ml and allowed to firmly adhere under static conditions for 15 minutes. Next, shear stress was initiated and increased in a step-wise manner every 30 seconds as follows: 35, 56, 91, 224, 504, and 980 mPa. The assay was recorded by video, which was analyzed to determine the percentage of cells detached at the end of each shear stress interval. For the anti-ROBO1 detachment assay, MS1 cells were treated for […] at 37° C. with TNFα as described above and then with 100 ng/ml recombinant mouse SDF-1α (460-SD; R&D Systems). T cells were pre-treated for 30 minutes at 37° C. with 20 μg/ml ROBO1 blocking antibody (GT15144; Neuromics, Edina, Minn., USA) or isotype control (GT15900; Neuromics).
# For the SLIT2 detachment assay, the following modifications were made. Vascular cell adhesion molecule 1 (VCAM-1)- and intercellular cell adhesion molecule 1 (ICAM-1)-coated plates were substituted for confluent monolayers of MS1 cells to isolate the specific ligand and receptor interactions involved. Plates were treated by tracing five 5 mm diameter circles aligned in one row in the center of a 100 mm diameter tissue culture dish using a PAP pen, and then applying 15 μl of 1 mg/ml protein A to each circle for 30 minutes. Plates were rinsed twice with PBS and blocked for 30 minutes with 5% (wt/vol) BSA in PBS. Plates were rinsed and each circle was then treated for 30 minutes with 15 μl of a solution containing 5 μg/ml ICAM-1/Fc chimera (796-IC; R&D Systems) and 5 μg/ml VCAM-1/Fc chimera (643-VM; R&D Systems), or PBS (control). Plates were rinsed and stored at 4° C. T cells were suspended in HBSS containing, 10 μg/ml heparin sodium and treated for 15 minutes at 37° C. with 250 ng/ml SDF-1 and 20 μg/ml recombinant mouse SLIT2 (5444-SL; R&D Systems) before use. A Glycotech rectangular flow chamber with a 250 μm thick gasket and a 1 cm wide flow path was used. […]
molecule,measurement,setting,value
c1cc(CN2CCCNCCNCCCNCC2)ccc1CN1CCCNCCNCCCNCC1 [AMD3100],development of diabetes,[1]; disruption of SDF-1-CXCR4 binding,accelerate the development of diabetes
same,beta cell apoptosis,"[1]; mouse, in vivo",induce beta cell apoptosis
"AYWKENKEQ with two branched lysines as a linker between the two motifs (also: two branched lysines as a linker between the two motifs) [SDF-1 peptide mimetic, linearized version of a cyclized SDF-1 analogue reported by Tudan et al]",TNFα-induced firm adhesion of T cells (fold change in number of adherent cells),[2],prevented NOD T cell adhesion; also recorded: significantly reduced; also recorded: reversed
same,number of rolling cells,"[2]; TNFα-treated MS1 cells, data not shown",did not decrease
same,T cell rolling velocity,"[2]; TNFα-treated endothelial cells, versus control",did not significantly affect
"KPVSLSYRCPCRFF-Linker-LKWIQEYLEKALN-OH (KPVSLSYRCPCRFF[Linker]LKWIQEYLEKALN-OH; cysteine pairing not given here; reading uncertain; also: printed as KPVSLSYRCPCRFF-Linker-LKWIQEYLEKALN-OH) [CTCE-0214, 2, small peptide CXCR4 agonist from British Canadian BioSciences]",TNFα-induced firm adhesion of T cells (fold change in number of adherent cells),[2],can reduce
same,progression of autoimmune diabetes,NOD/LtSz Rag1^−/− mice; 1 mg/kg,almost no effect
same,blood glucose levels compared with PBS treatment,NOD/LtSz Rag1^−/− mice; 1 mg/kg three times per week,not
same,blood glucose levels compared with PBS-treated mice,"NOD/LtSz Rag1^−/− mice; 10 mg/kg once per week, retro-orbital, 5.5 and 6 weeks post-transfer",significantly reduced glucose levels
same,development of hyperglycaemia compared with PBS treatment,NOD/LtSz Rag1^−/− mice; 10 mg/kg one time per week,delayed development of hyperglycaemia
same,development of hyperglycaemia compared with PBS treatment,NOD/LtSz Rag1^−/− mice; 10 mg/kg three times per week,delayed development of hyperglycaemia
same,blood glucose levels compared with PBS treatment,NOD/LtSz Rag1^−/− mice; 10 mg/kg three times per week,significantly reduced glucose levels
same,"adoptive transfer / progression of autoimmune diabetes, onset of hyperglycaemia",NOD/LtSz Rag1^−/− mice; 10 mg/kg where a dose is stated,significantly delayed the onset of hyperglycaemia; also recorded: therapeutically beneficial; also recorded: effectively delayed adoptive transfer of diabetes; also recorded: slowed the development of diabetes
same,effect of dosing frequency on incidence of hyperglycaemia,NOD/LtSz Rag1^−/− mice; once per week versus three times per week,better reduction in the incidence of hyperglycaemia at a dosing of once per week; also recorded: more beneficial effect at once-a-week dosing
same,migration of CD34^+ cells,CD34^+ cells,increases migration
B1,shear-mediated T cell detachment from VCAM-1- and ICAM-1-coated plates,[3],significant increase in detachment; also recorded: promoted detachment
same,shear-mediated T cell detachment from VCAM-1- and ICAM-1-coated plates,[3]; listed as Slit-2 peptide containing the LRR domain 2,stimulated detachment
same,shear-mediated T cell detachment from VCAM-1- and ICAM-1-coated plates,[3]; listed as recombinant SLIT2,reversed
